Data: PMC10212518 (Biochemical Journal, 2023)

Experiments:
wild-type MDF cells = assay: FACS cell death assay (PI uptake by flow cytometry) after necroptotic stimulus; format: cell-based, mouse; settings: for inhibition of TSQ-induced necroptosis (PI uptake, flow cytometry): TSQ 24 h, control comparison at concentrations >1 µM; for inhibition of TSZ-induced necroptosis (PI uptake, flow cytometry): TSZ 24 h
Method: In the first protocol, WT MDF cells were seeded at 1.0 × 10^5 cells per well in 24-well plates and allowed to settle for 4 h at 37°C 10% CO2. […] After 24 h, cells were harvested, stained with 1 µg/ml propidium iodide (PI; Sigma–Aldrich) and PI positive cells were quantified by flow cytometry on a BD FACSCalibur instrument. In the second protocol, WT MDF cells were seeded at 5.0 × 10^4 cells in 500 µl per well in 24-well plates (Falcon, cat #353047) and allowed to settle for 24 h at 37°C 10% CO2. […] For all compounds and reagents, 0.5 µl of 1000× stocks were used. Cells were harvested, stained with 2 µg/ml propidium iodide (PI; Sigma–Aldrich) and PI positive cells were quantified by flow cytometry on a BD FACSCalibur instrument.

[1] = molecular target: T1, endogenous mouse RIPK3 in MDF cells (Mus musculus, UniProt Q9QZL0); assay: Cellular Thermal Shift Assay (CETSA); format: binding; settings: 20 µM
T1 construct: endogenous in cells; host or cells: wild-type mouse dermal fibroblasts (MDF)
T1 sequence (Q9QZL0 whole entry): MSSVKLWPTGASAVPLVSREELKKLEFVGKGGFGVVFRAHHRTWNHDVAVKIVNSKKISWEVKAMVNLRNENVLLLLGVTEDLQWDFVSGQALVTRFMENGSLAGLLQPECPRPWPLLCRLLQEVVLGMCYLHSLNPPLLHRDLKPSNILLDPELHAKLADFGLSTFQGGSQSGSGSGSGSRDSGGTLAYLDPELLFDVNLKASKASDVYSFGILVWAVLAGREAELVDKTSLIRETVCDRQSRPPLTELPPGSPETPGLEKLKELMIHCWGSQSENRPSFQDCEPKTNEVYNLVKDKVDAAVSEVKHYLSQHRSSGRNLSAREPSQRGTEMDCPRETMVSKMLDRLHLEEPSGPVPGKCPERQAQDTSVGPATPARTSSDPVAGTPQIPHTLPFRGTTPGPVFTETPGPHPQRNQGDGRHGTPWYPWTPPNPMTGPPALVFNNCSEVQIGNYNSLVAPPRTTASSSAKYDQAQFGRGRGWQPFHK
Method: (§1) CETSA was performed as previously described. Briefly, Mlkl^−/− MDF cells were treated with doxycycline (20 ng/ml) for 4 h to induce expression of the MLKL Q343A mutant and then seeded to obtain 1.5 × 10^6 cells per temperature point. WT MDF or U937 cells were seeded to obtain 1.5 × 10^6 cells per temperature point. Cells were treated with DMSO or compounds (20 µM), as specified, for 1 h at 37°C 10% CO2. Cells were spun down, washed with 5 ml DPBS (Gibco), resuspended in DPBS containing cOmplete EDTA-free Protease Inhibitor Cocktail (Roche) and aliquoted into 100 µl samples per temperature point in PCR tubes. Live cell suspensions were heated across a temperature gradient (below) for 3 min in a T100 Thermal Cycler (Bio-Rad), cooled at room temperature for 3 min, snap frozen in liquid N2 and stored at −80°C overnight.
(§2) Samples were freeze-thawed once to lyse the cells. Soluble protein was separated from precipitated protein via centrifugation at 17 000×g for 30 min at 4°C. Soluble protein fractions were resolved by SDS–PAGE and analysed by Western blot. Briefly, 10 µl of each soluble protein sample was added to 10 µl of NuPAGE LDS Sample Buffer (Invitrogen) containing TCEP (Sigma–Aldrich). Samples were heated at 95°C for 10 min and then 15 µl of each sample was run on a gel along with the Precision Plus Kaleidoscope Prestained Protein Standard (Bio-Rad), using either NuPAGE 4–12% Bis-Tris 1.0 mm × 20-well Midi Gels (Invitrogen) with NuPAGE MES SDS Running Buffer (Invitrogen), or 4–15% Criterion TGX Stain-Free 26 well 15 µl Protein Gels (Bio-Rad) with Tris/Glycine Buffer (Bio-Rad). Western blots were performed according to the Western Blotting General Procedure above.

[2] = test system: RIPK3 phosphorylation in MDF cells; assay: Cellular phosphorylation assay, Western blot of phospho-RIPK3; format: cell-based, mouse; settings: 10 µM, 2 h pre-treatment; TSI 2 h; wild-type MDF cells
Method: (§3) WT, Ripk1^−/−Mlkl^−/− and Ripk3^−/− MDF cell lines were seeded at 3.0 × 10^5 cells in 1 ml per well in 12-well plates (Corning, cat #3512) and allowed to settle for 24 h at 37°C 10% CO2. WT cells were treated with DMSO alone or compounds (1 µM or 10 µM), as specified, for 2 h. Ripk1^−/−Mlkl^−/− and Ripk3^−/− cells were left untreated. Cells were stimulated with TSI to induce phosphorylation of RIPK1 and RIPK3, or left unstimulated, for 2 h. For all compounds and reagents, 1 µl of 1000× stocks were used. Cells were harvested, washed with 500 µl DPBS (Gibco) and lysed in 25 µl of ice-cold RIPA buffer (25 mM Tris–HCl pH 7.5, 150 mM NaCl, 1% v/v Nonidet P-40, 1% w/v Na Deoxycholate, 0.1% w/v SDS) containing cOmplete EDTA-free Protease Inhibitor Cocktail (Roche), PhosSTOP Phosphatase Inhibitor Cocktail (Roche) and benzonase nuclease (Sigma–Aldrich) for 30 min on ice. Whole cell lysates were stored at −80°C until protein quantification, SDS–PAGE and Western blots were performed. Briefly, whole cell lysates were thawed on ice then quantified using the BCA Protein Assay with bicinchoninic acid solution (Sigma–Aldrich) and copper sulfate solution (Sigma–Aldrich). NuPAGE LDS Sample Buffer (Invitrogen) containing TCEP (Sigma–Aldrich) was added to the whole cell lysates to obtain 20 µg protein in 20 µl total volume per sample. Samples were heated at 95°C for 10 minutes and 20 µl of each sample was run on NuPAGE 4–12% Bis-Tris 1.0 mm × 12-well Mini Gels (Invitrogen) using NuPAGE MES SDS Running Buffer (Invitrogen) along with the Precision Plus Kaleidoscope Prestained Protein Standard (Bio-Rad). Western blots were performed according to the Western Blotting General Procedure above.

[3] = molecular target: T2, endogenous mouse RIPK1 in MDF cells (Mus musculus, UniProt Q60855); assay: Cellular Thermal Shift Assay (CETSA); format: binding; settings: 20 µM
T2 construct: endogenous in cells; host or cells: wild-type mouse dermal fibroblasts (MDF)
T2 sequence (Q60855 1-656): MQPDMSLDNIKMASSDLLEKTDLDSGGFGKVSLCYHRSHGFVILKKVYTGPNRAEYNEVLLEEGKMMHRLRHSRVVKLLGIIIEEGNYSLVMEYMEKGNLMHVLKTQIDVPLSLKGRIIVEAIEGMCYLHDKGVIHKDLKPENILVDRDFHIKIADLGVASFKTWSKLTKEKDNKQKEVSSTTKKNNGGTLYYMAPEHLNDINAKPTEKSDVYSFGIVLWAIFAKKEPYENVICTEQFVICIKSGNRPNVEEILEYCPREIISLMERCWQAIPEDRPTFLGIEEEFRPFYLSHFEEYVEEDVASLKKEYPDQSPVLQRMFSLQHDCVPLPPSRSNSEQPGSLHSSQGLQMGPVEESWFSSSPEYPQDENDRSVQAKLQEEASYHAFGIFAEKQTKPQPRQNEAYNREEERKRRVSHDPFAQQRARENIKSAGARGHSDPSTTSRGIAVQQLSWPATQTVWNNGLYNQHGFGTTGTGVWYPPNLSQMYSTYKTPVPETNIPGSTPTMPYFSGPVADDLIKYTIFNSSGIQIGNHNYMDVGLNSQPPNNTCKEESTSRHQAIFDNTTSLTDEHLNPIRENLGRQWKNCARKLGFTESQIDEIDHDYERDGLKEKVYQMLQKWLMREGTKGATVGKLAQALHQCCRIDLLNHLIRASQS
Method: as §1, §2

[4] = test system: RIPK1 phosphorylation in MDF cells; assay: Cellular phosphorylation assay, Western blot of phospho-RIPK1; format: cell-based, mouse; settings: 10 µM, 2 h pre-treatment; TSI 2 h; wild-type MDF cells
Method: as §3

## Cc1cc(-c2cnc(N)c3c(-c4ccc5scnc5c4)csc23)n(C)n1 [GSK′843]
wild-type MDF cells
  inhibition of TSQ-induced necroptosis (PI uptake, flow cytometry): protection was comparable
  inhibition of TSZ-induced necroptosis (PI uptake, flow cytometry): more potent protection with the control inhibitors compared with ABT-869

## CC(C)S(=O)(=O)c1ccc2nccc(Nc3ccc4scnc4c3)c2c1 [GSK′872]
wild-type MDF cells
  inhibition of TSQ-induced necroptosis (PI uptake, flow cytometry): protection was comparable
  inhibition of TSZ-induced necroptosis (PI uptake, flow cytometry): more potent protection with the control inhibitors compared with ABT-869
[1]
  effect on thermal stability of endogenous mouse RIPK3 (CETSA): had no effect on RIPK3 stability
[2]
  effect on RIPK3 phosphorylation (phospho-RIPK3 signal, Western blot): almost completely inhibited

## CN1C(=O)NC(Cc2c[nH]c3c(Cl)cccc23)C1=O (centres unmarked) [Nec-1s]
[3]
  effect on thermal stability of endogenous mouse RIPK1 (CETSA): increased the thermal stability
[4]
  effect on RIPK1 phosphorylation (phospho-RIPK1 signal, Western blot): almost completely ablated RIPK1 phosphorylation
